IC50 data for 23 molecules are collected here from US12653809B2, “Urea, amide, and substituted heteroaryl compounds for CBL-B inhibition” (Nurix Therapeutics, Inc., priority 2019, dated 2026).

For orientation: IC50 means the concentration at which inhibition is half-maximal.

Like-named read-outs stand apart in the source and are kept apart here.

The target in the assay is T1, Cbl-b (truncated variant, UniProt number Q13191) (Homo sapiens, UniProt Q13191).
T1 construct: made in house
In words: Cbl-b activity assay (TR-FRET, interaction of Cbl-b with UbcH5B-Ub). It counts as biochemical. The source says:
As described in Biological Example 1A, a Cbl-b activity assay (Cbl-b inhibition assay) used to measure the IC50 values for Cbl-b inhibition uses a mixture comprising candidate compound, Cbl-b (truncated, with an Avitag, and biotinylated), a fluorescently-labeled E2 enzyme UbcH5B labelled with ubiquitin conjugated to BODIPY-fluorescein (UbcH5B-Ub), streptavidin-terbium, and assay buffer. In one embodiment, the Cbl-b activity assay (Cbl-b inhibition assay) used to measure IC50 for inhibition of Cbl-b uses the conditions described in Biological Example 1A with 12 nM Cbl-b. […] In another embodiment, the Cbl-b activity assay (Cbl-b inhibition assay) used to measure IC50 for inhibition of Cbl-b uses the conditions described in Biological Example 1B, with candidate compound, 0.125 nM Cbl-b (truncated, with an avitag, and biotinylated), fluorescently labelled inhibitor probe, and assay buffer. Displacement of the inhibitor probe indicates Cbl-b activity.
Candidate compounds isolated from screening assays were evaluated for their ability to bind and inhibit Cbl-b, an E3 ubiquitin-protein ligase.
The ability of candidate compounds to inhibit Cbl-b activity was measured by monitoring the interaction of Cbl-b with UbcH5B-Ub in the presence of the candidate compound. A truncated variant of Cbl-b (UniProt number Q13191; SEQ ID NO:1) containing an Avitag at its N-terminus was co-expressed with BirA biotin ligase and purified using a standard protocol (see Dou et al., Nature Structural and Molecular Biology 8: 982-987, 2013; Avidity LLC).
Fluorescently labeled UbcH5B-Ub was prepared by conjugating ubiquitin (Ub), labeled at its N-terminus with Bodipy-Fluorescein, to UbcH5B, an E2 enzyme, harboring a cysteine to lysine mutation at position 85. This mutation is similar to a mutation that was previously reported (see Dou et al., Nature Structural and Molecular Biology 8: 982-987, 2013). Cbl-b activity assays were performed in a 384-well plate at room temperature in a 10 μL reaction volume by pre-incubating 12 nM Cbl-b (final concentration) in an assay buffer containing 50 mM HEPES pH 7.0, 100 mM NaCl, 0.01% Triton X-100, 0.01% BSA, and 1 mM DTT in the presence of a candidate compound in 1% DMSO (final concentration, High Conditions) for one hour. After incubation in the presence of the candidate compound, the plate was incubated for an additional 1.5 hours in the presence of 60 nM Src kinase with 1 mM ATP and 5 mM MgCl2 (final concentrations). Alternatively, compounds were tested as described above with assay buffer containing 50 mM NaCl instead of 100 mM NaCl and 30 nM Src kinase instead of 60 nM Src kinase (Low Conditions). Src kinase was prepared as previously described (see Kobashigawa et al., Proc Natl Acad Sci USA, 108: 20579-20584, 2011). […] The plate was incubated for one hour. Following the one hour incubation, the plates were read for TR-FRET signal at 520/620 nm using Envision plate reader (Perkin Elmer). The presence of a FRET signal that indicated Cbl-b was not inhibited by the compound candidate. The absence of a FRET signal indicated Cbl-b was inhibited by the compound candidate and was therefore a Cbl-b inhibitor.
The resulting data for the Cbl-b activity assays were analyzed using standard methods to report the IC50 values of the tested compounds (Tables 3-4). The resulting data for the Cbl-b binding assay was solvent corrected and double-referenced prior to analysis. All data were globally fit to a steady-state affinity and kinetic binding model where applicable. Compounds were ranked into bins A through D as follows for IC50: A indicates <0.1 μM, B indicates 0.1 μM≤IC50<1 μM, C indicates 1 μM≤IC50<5 μM, and D indicates 5 μM≤IC50.
Background: TR-FRET usually uses a lanthanide donor and a delayed reading to cut background.

Where [1] appears, read: Biological Example 1A, low or high conditions not stated, read-out: IC50 values in the Cbl-b inhibition assay of Biological Example 1A.
The mark [2] stands for this setting: high conditions: 100 mM NaCl, 60 nM Src kinase, 12 nM Cbl-b, read-out: Cbl-b activity IC50.
The mark [3] stands for this setting: low conditions: 50 mM NaCl, 30 nM Src kinase, 12 nM Cbl-b, read-out: Cbl-b activity IC50.

T1 sequence (Q13191 36-427): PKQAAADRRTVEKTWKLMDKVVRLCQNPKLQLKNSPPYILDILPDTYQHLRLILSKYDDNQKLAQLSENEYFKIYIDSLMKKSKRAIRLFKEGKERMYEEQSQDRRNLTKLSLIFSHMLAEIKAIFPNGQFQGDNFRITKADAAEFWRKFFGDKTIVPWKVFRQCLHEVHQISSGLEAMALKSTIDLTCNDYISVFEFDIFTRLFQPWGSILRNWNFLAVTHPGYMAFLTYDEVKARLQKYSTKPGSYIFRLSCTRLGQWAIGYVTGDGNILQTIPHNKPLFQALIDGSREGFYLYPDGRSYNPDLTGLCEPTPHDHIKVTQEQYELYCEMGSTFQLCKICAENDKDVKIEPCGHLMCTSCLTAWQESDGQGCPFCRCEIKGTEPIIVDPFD

As to `C[C@H](Cc1nncn1C)c1cccc(NC(=O)N2C[C@H](CO)[C@@H](C)C2)c1` (relative stereo) [Example 17, (3R*,4R*)-3-(hydroxymethyl)-4-methyl-N-(3-((R)-1-(4-methyl-4H-1,2,4-triazol-3-yl)propan-2-yl)phenyl)pyrrolidine-1-carboxamide], the IC50 lay in the range of 1000 to 5000 nM under setting [1] and 1000 to 5000 nM under setting [2].
In the case of `CC(Sc1nncn1C)c1cccc(C(=O)Nc2cccc(C(F)(F)F)n2)c1` (stereo not shown) [Example 1, 3-(1-((4-methyl-4H-1,2,4-triazol-3-yl)thio)ethyl)-N-(6-(trifluoromethyl)pyridin-2-yl)benzamide], the IC50 by setting is: under setting [1], at least 5000 nM; under setting [3], at least 5000 nM.
On to `C[C@H](Sc1nncn1C)c1cccc(NC(=O)Nc2ccccn2)c1` [Example 2, (S)-1-(3-(1-((4-methyl-4H-1,2,4-triazol-3-yl)thio)ethyl)phenyl)-3-(pyridin-2-yl)urea], for which the IC50 lay within 100 to 1000 nM under setting [1] and 100 to 1000 nM under setting [3].
As to `C[C@H](Sc1nncn1C)c1cccc(NC(=O)Nc2cccc(C(F)(F)F)n2)c1` [Example 3, (S)-1-(3-(1-((4-methyl-4H-1,2,4-triazol-3-yl)thio)ethyl)phenyl)-3-(6-(trifluoromethyl)pyridin-2-yl)urea], the half-inhibitory concentration (IC50) runs as follows: under setting [1], 100 to 1000 nM; under setting [2], 100 to 1000 nM.
For the molecule `COc1cccc(NC(=O)Nc2cccc([C@H](C)Sc3nncn3C)c2)n1` [Example 4, (S)-1-(6-methoxypyridin-2-yl)-3-(3-(1-((4-methyl-4H-1,2,4-triazol-3-yl)thio)ethyl)phenyl)urea], under setting [2], the IC50 was at least 5000 nM.
In the case of `C[C@H](Sc1nncn1C)c1cccc(NC(=O)NCc2ccccc2)c1` [Example 5, (S)-1-benzyl-3-(3-(1-((4-methyl-4H-1,2,4-triazol-3-yl)thio)ethyl)phenyl)urea], under setting [3], the IC50 was at least 5000 nM.
Take `C[C@H](Sc1nncn1C)c1cccc(NC(=O)Nc2ccccc2)c1` [Example 6, (S)-1-(3-(1-((4-methyl-4H-1,2,4-triazol-3-yl)thio)ethyl)phenyl)-3-phenylurea]: the half-inhibitory concentration (IC50) under setting [2] was at least 5000 nM.
On the same count and under the same terms, then `C[C@H](Sc1nncn1C)c1cccc(NC(=O)N2CCc3ccccc32)c1` [Example 7, (S)—N-(3-(1-((4-methyl-4H-1,2,4-triazol-3-yl)thio)ethyl)phenyl)indoline-1-carboxamide], with at least 5000 nM; and `C[C@H](Sc1nncn1C)c1cccc(NC(=O)N2CCCc3ccccc32)c1` [Example 8, (S)—N-(3-(1-((4-methyl-4H-1,2,4-triazol-3-yl)thio)ethyl)phenyl)-3,4-dihydroquinoline-1(2H)-carboxamide], with at least 5000 nM.
As for `C[C@H](Cc1nncn1C)c1cccc(NC(=O)N2CCCc3cccnc32)c1` [Example 9, (R)—N-(3-(1-(4-methyl-4H-1,2,4-triazol-3-yl)propan-2-yl)phenyl)-3,4-dihydro-1,8-naphthyridine-1(2H)-carboxamide], the IC50 lay in the range of 100 to 1000 nM under setting [1] and 100 to 1000 nM under setting [2].
Turning to `C[C@H](Cc1nncn1C)c1cccc(NC(=O)N2CCOc3cccnc32)c1` [Example 10, (R)—N-(3-(1-(4-methyl-4H-1,2,4-triazol-3-yl)propan-2-yl)phenyl)-2,3-dihydro-4H-pyrido[3,2-b][1,4]oxazine-4-carboxamide], the IC50 was under 100 nM under setting [1] and under 100 nM under setting [2].
On to `COC(=O)C1(C(F)(F)F)CCN(C(=O)Nc2cccc([C@H](C)Cc3nncn3C)c2)C1` (stereo partly drawn) [Example 11, Methyl 1-((3-((R)-1-(4-methyl-4H-1,2,4-triazol-3-yl)propan-2-yl)phenyl)carbamoyl)-3-(trifluoromethyl)pyrrolidine-3-carboxylate], for which the IC50 reads like this: under setting [1], 1000 to 5000 nM; under setting [2], 1000 to 5000 nM.
Regarding `CNC(=O)C1(C)CCN(C(=O)Nc2cccc([C@H](C)Cc3nncn3C)c2)C1` (stereo partly drawn) [Example 12, N^3,3-dimethyl-N′-(3-((R)-1-(4-methyl-4H-1,2,4-triazol-3-yl)propan-2-yl)phenyl)pyrrolidine-1,3-dicarboxamide], the IC50 is at least 5000 nM under setting [1] and at least 5000 nM under setting [2].
For `Cc1cccc2c1CN(C(=O)Nc1cccc([C@H](C)Cc3nncn3C)c1)C2` [Example 13, (R)-4-methyl-N-(3-(1-(4-methyl-4H-1,2,4-triazol-3-yl)propan-2-yl)phenyl)isoindoline-2-carboxamide], the concentration for half-maximal inhibition (IC50) under setting [1] lay within 100 to 1000 nM and the IC50 under setting [2] is 100 to 1000 nM.
Regarding `C[C@H](Cc1nncn1C)c1ccnc(C(=O)Nc2cccc(C(F)(F)F)n2)c1` [Example 14, 4-[(2R)-1-(4-methyl-4H-1,2,4-triazol-3-yl)propan-2-yl]-N-[6-(trifluoromethyl)pyridin-2-yl]pyridine-2-carboxamide], the IC50 is, setting by setting: under setting [1], 100 to 1000 nM; under setting [2], 100 to 1000 nM.
Regarding `C[C@H](Cc1nncn1C)c1cccc(NC(=O)N2CCC(C(=O)O)(C(F)(F)F)C2)c1` (stereo partly drawn) [Example 15, 1-((3-((R)-1-(4-methyl-4H-1,2,4-triazol-3-yl)propan-2-yl)phenyl)carbamoyl)-3-(trifluoromethyl)pyrrolidine-3-carboxylic acid], the half-inhibitory concentration (IC50) lay within 1000 to 5000 nM under setting [1] and 1000 to 5000 nM under setting [2].
Consider `C[C@H](Cc1nncn1C)c1cccc(NC(=O)N2CCc3cccnc32)c1` [Example 16, (R)—N-(3-(1-(4-methyl-4H-1,2,4-triazol-3-yl)propan-2-yl)phenyl)-2,3-dihydro-1H-pyrrolo[2,3-b]pyridine-1-carboxamide], for which the IC50 runs as follows: under setting [1], 100 to 1000 nM; under setting [2], 100 to 1000 nM.
As to `C[C@H](Cc1nncn1C)c1cccc(C(=O)Nc2cccc(C(F)(F)F)n2)c1` [Example 18, (R)-3-(1-(4-methyl-4H-1,2,4-triazol-3-yl)propan-2-yl)-N-(6-(trifluoromethyl)pyridin-2-yl)benzamide], the IC50 runs as follows: under setting [1], at least 5000 nM; under setting [2], at least 5000 nM.
With `C[C@H](Cc1nncn1C)c1cccc(NC(=O)N2CC(C)(C)Oc3cccnc32)c1` [Example 19, (R)-2,2-dimethyl-N-(3-(1-(4-methyl-4H-1,2,4-triazol-3-yl)propan-2-yl)phenyl)-2,3-dihydro-4H-pyrido[3,2-b][1,4]oxazine-4-carboxamide], the IC50 is, setting by setting: under setting [1], under 100 nM; under setting [2], under 100 nM.
On to `CNC(=O)C1(C(F)(F)F)CCN(C(=O)Nc2cccc([C@H](C)Cc3nncn3C)c2)C1` (stereo partly drawn) [Example 20, N^3-methyl-N^1-(3-((R)-1-(4-methyl-4H-1,2,4-triazol-3-yl)propan-2-yl)phenyl)-3-(trifluoromethyl)pyrrolidine-1,3-dicarboxamide], for which the IC50 under setting [2] lay in the range of 100 to 1000 nM.
Still for that read-out and setting: in the case of `C[C@H](Cc1nncn1C)c1cccc(NC(=O)N2CCOc3cc(Br)cnc32)c1` [Example 21, (R)-7-bromo-N-(3-(1-(4-methyl-4H-1,2,4-triazol-3-yl)propan-2-yl)phenyl)-2,3-dihydro-4H-pyrido[3,2-b][1,4]oxazine-4-carboxamide] it was 100 to 1000 nM.
As to `C[C@H](Cc1nncn1C)c1cccc(NC(=O)N2CC(C)(C)c3cccnc32)c1` [Example 22, (R)-3,3-dimethyl-N-(3-(1-(4-methyl-4H-1,2,4-triazol-3-yl)propan-2-yl)phenyl)-2,3-dihydro-1H-pyrrolo[2,3-b]pyridine-1-carboxamide], the IC50 under setting [2] was 100 to 1000 nM.
On the same count and under the same terms, then `Cn1cnnc1CC1(c2cccc(NC(=O)N3CCOc4cccnc43)c2)COC1` [Example 23, N-(3-(3-((4-methyl-4H-1,2,4-triazol-3-yl)methyl)oxetan-3-yl)phenyl)-2,3-dihydro-4H-pyrido[3,2-b][1,4]oxazine-4-carboxamide], with 100 to 1000 nM.
